Laboratory results published in patent publication US20230183193A1, “4-DIFLUOROMETHYL BENZOYL AMIDES WITH HERBICIDAL ACTION” (BAYER CROPSCIENCE AKTIENGESELLSCHAFT, priority 2017, published 2023).

Key:
Format in all cases: in vivo
[1] = test system: Abutilon theophrasti; assay: Pre-emergence herbicidal action, ABUTH; details: dosage 320 g/ha, scored visually after 3 weeks vs untreated controls
Excerpt: (§1) 1. Pre-Emergence Herbicidal Action Against Harmful Plants Seeds of monocotyledonous and dicotyledonous weed plants and crop plants are laid out in sandy loam soil in wood-fiber pots and covered with soil. The compounds of the invention, formulated in the form of wettable powders (WP) or as emulsion concentrates (EC), are then applied to the surface of the covering soil in the form of an aqueous suspension or emulsion at a water application rate equating to […], with addition of 0.2% wetting agent. After the treatment, the pots are placed in a greenhouse and kept under good growth conditions for the trial plants. The damage to the test plants is scored visually after a test period of 3 weeks by comparison with untreated controls (herbicidal activity in percent (%): 100% activity=the plants have died, 0% activity=like control plants).
(§2) For comparison, the herbicidal activity of numerous compounds according to the invention was tested with the structurally closest compounds known from the documents WO 2011/035874, WO 2012/028579 and WO 2012/126932, by the pre- and post-emergence method.

[2] = test system: Alopecurus myosuroides; assay: Pre-emergence herbicidal action, ALOMY; details: dosage 320 g/ha, scored visually after 3 weeks vs untreated controls
Excerpt: as §1, §2

[3] = test system: Amaranthus retroflexus; assay: Pre-emergence herbicidal action, AMARE; details: dosage 320 g/ha, scored visually after 3 weeks vs untreated controls
Excerpt: as §1, §2

[4] = test system: Matricaria inodora; assay: Pre-emergence herbicidal action, MATIN; details: dosage 320 g/ha, scored visually after 3 weeks vs untreated controls
Excerpt: as §1, §2

[5] = test system: Setaria viridis; assay: Pre-emergence herbicidal action, SETVI; details: dosage 320 g/ha, scored visually after 3 weeks vs untreated controls
Excerpt: as §1, §2

[6] = test system: Stellaria media; assay: Pre-emergence herbicidal action, STEME; details: dosage 320 g/ha, scored visually after 3 weeks vs untreated controls
Excerpt: as §1, §2

[7] = test system: Viola tricolor; assay: Pre-emergence herbicidal action, VIOTR; details: dosage 320 g/ha, scored visually after 3 weeks vs untreated controls
Excerpt: as §1, §2

[8] = test system: Alopecurus myosuroides; assay: Post-emergence herbicidal action, ALOMY; details: 80 g/ha, Table C
Procedure: (§3) Seeds of monocotyledonous and dicotyledonous weed and crop plants are laid out in sandy loam soil in wood-fiber pots, covered with soil and cultivated in a greenhouse under good growth conditions. 2 to 3 weeks after sowing, the test plants are treated at the one-leaf stage. The compounds of the invention, formulated in the form of wettable powders (WP) or as emulsion concentrates (EC), are then sprayed onto the green parts of the plants in the form of an aqueous suspension or emulsion at a water application rate equating to […], with addition of 0.2% wetting agent. After the test plants have been left to stand in the greenhouse under optimal growth conditions for about 3 weeks, the action of the preparations is assessed visually in comparison to untreated controls (herbicidal action in percent (%): 100% activity=the plants have died, 0% activity=like control plants). […] At the same time, inventive compounds leave Gramineae crops such as barley, wheat, rye, millet/sorghum, corn or rice virtually undamaged when applied post-emergence, even at high active compound dosages. In addition, some substances are also harmless to dicotyledonous crops such as soya, cotton, oilseed rape, sugar beet or potatoes. Some of the compounds according to the invention have high selectivity and are therefore suitable for controlling unwanted vegetation in agricultural crops by the post-emergence method. The data of Tables C and D below illustrate, in an exemplary manner, the […] herbicidal action of the compounds according to the invention, the herbicidal activity being stated in percent.
as §2

[9] = test system: Amaranthus retroflexus; assay: Post-emergence herbicidal action, AMARE; details: 80 g/ha, Table D
Procedure: as §3, §2

[10] = test system: Avena fatua; assay: Post-emergence herbicidal action, AVEFA; details: 80 g/ha, Table C
Procedure: as §3, §2

[11] = test system: Setaria viridis; assay: Post-emergence herbicidal action, SETVI; details: 80 g/ha, Table C
Procedure: as §3, §2

[12] = test system: Stellaria media; assay: Post-emergence herbicidal action, STEME; details: 80 g/ha, Table D
Procedure: as §3, §2

[13] = test system: Viola tricolor; assay: Post-emergence herbicidal action, VIOTR; details: 80 g/ha, Table D
Procedure: as §3, §2

[14] = test system: ECHCG; assay: Post-emergence herbicidal action, ECHCG; details: 80 g/ha, Table C
Procedure: as §3

[15] = test system: Avena fatua; assay: Pre-emergence herbicidal action, AVEFA; details: dosage 320 g/ha, scored visually after 3 weeks vs untreated controls
Excerpt: as §1, §2

[16] = test system: Cyperus serotinus; assay: Pre-emergence herbicidal action, CYPES; details: dosage 320 g/ha, scored visually after 3 weeks vs untreated controls
Excerpt: as §1, §2

[17] = test system: Abutilon theophrasti; assay: Post-emergence herbicidal action, ABUTH; details: 80 g/ha, Table D
Procedure: as §3, §2

[18] = test system: Pharbitis purpureum; assay: Post-emergence herbicidal action, PHBPU; details: 80 g/ha, Table D
Procedure: as §3, §2

Compound	herbicidal activity ABUTH [1] [%]	herbicidal activity ALOMY [2] [%]	herbicidal activity AMARE [3] [%]	herbicidal activity MATIN [4] [%]	herbicidal activity SETVI [5] [%]	Herbicidal activity STEME [6] [%]	herbicidal activity VIOTR [7] [%]	herbicidal activity ALOMY [8] [%]	herbicidal activity AMARE [9] [%]	herbicidal activity AVEFA [10] [%]	herbicidal activity SETVI [11] [%]	Herbicidal activity STEME [12] [%]	herbicidal activity VIOTR [13] [%]	Herbicidal activity ECHCG [14] [%]	herbicidal activity AVEFA [15] [%]	herbicidal activity CYPES [16] [%]	herbicidal activity ABUTH [17] [%]	Herbicidal activity PHBPU [18] [%]
CCSc1c(C(F)F)ccc(C(=O)Nc2nnc(C)o2)c1C [Example 7-4]	100	90	100	80	100	90	100	90	100	90	100	90	100	100	–	–	–	–
CCSc1c(C(F)F)ccc(C(=O)Nc2nnc(C)o2)c1Cl [Example 7-50]	100	100	90	90	100	100	100	90	90	90	100	90	100	100	100	90	100	–
CCCn1nnnc1NC(=O)c1ccc(C(F)F)c(SC)c1C [Example 3-1]	100	100	100	100	100	100	100	90	100	100	100	100	100	100	100	–	100	90
CCS(=O)(=O)c1c(C(F)F)ccc(C(=O)Nc2nnnn2C)c1I [Example 1-78]	100	100	100	100	100	–	100	90	100	80	100	100	90	100	100	100	80	100
CCSc1c(C(F)F)ccc(C(=O)Nc2nnnn2C)c1CC [Example 1-16]	100	100	100	100	100	100	100	90	100	90	90	100	100	90	100	100	100	–
CCSc1c(C(F)F)ccc(C(=O)Nc2ncnn2C)c1Br [Example 4-64]	100	90	100	100	100	100	100	100	100	100	100	100	100	100	100	–	100	100
CCn1nnnc1NC(=O)c1ccc(C(F)F)c(SC)c1C [Example 2-1]	100	90	100	100	100	–	100	90	100	100	90	100	100	90	100	–	90	100
CCCn1nnnc1NC(=O)c1ccc(C(F)F)c(S(C)(=O)=O)c1C [Example 3-3]	100	90	100	100	100	–	100	90	80	90	90	90	100	90	100	90	90	90
CCS(=O)(=O)c1c(C(F)F)ccc(C(=O)Nc2nnc(C)o2)c1Br [Example 7-64]	100	100	–	100	100	100	100	90	100	100	100	90	90	100	100	100	100	100
CCn1nnnc1NC(=O)c1ccc(C(F)F)c([S+](C)[O-])c1C (stereo not shown) [Example 2-2]	100	100	100	100	100	–	100	90	80	90	100	100	100	90	100	90	90	90
